Experimental data taken from patent publication US20080038278A1, “GPAT3 encodes a mammalian, microsomal acyl-coa:glycerol 3- phosphate acyltransferase” (priority 2006, published 2008).
Values belong to the molecule of their own block, whether it stands above or below them.

Experiments:
hGPAT3 = target: T1, hGPAT3 (Homo sapiens, UniProt Q53EU6); assay: GPAT activity assay (TLC separation of LPA) in lysates of cells overexpressing hGPAT3; type: biochemical; conditions: for substrate concentration at half-maximal activity (hGPAT3-dependent LPA formation): hGPAT3 expressed in Sf9 cells, nonpurified lysate, other substrate at 100 μM; for increase in LPA formation conferred by hGPAT3 overexpression after NEM pretreatment: preincubated 15 min with NEM (0.4 mM, 0.4 μM elsewhere in the source)
T1 construct: full-length mouse and human GPAT3 were cloned by PCR amplification from cDNA libraries; made in house; host or cells: Sf9 insect cells (baculovirus, pFASTBAC1), total lysate; some experiments used lysates of HEK293 cells transfected with hGPAT3 in pcDNA3.1
T1 sequence (Q53EU6 1-434): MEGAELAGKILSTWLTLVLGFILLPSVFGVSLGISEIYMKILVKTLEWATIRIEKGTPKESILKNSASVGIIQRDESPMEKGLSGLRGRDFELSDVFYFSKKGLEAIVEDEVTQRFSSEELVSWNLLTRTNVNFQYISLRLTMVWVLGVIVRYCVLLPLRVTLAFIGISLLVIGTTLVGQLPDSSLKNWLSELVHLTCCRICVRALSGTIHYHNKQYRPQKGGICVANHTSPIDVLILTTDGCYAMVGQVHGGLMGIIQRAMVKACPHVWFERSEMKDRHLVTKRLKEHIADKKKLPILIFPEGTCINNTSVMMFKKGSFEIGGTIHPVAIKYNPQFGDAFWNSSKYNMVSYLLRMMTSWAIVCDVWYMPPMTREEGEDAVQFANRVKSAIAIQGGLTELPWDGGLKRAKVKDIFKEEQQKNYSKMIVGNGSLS
Text: Sf9 cells were infected with recombinant baculovirus at an MOI of 10 for 64 hrs. Cell pellets were harvested in ice-cold phosphate-buffered saline (PBS), lysed by sonication or Parr bomb, and total lysate was used immediately for enzyme assay. For subcellular fractionation, cel.ls were lysed with a rapid nitrogen decompression method (Parr Instrument Company, IL), followed by differential centrifugation at 8,000g (mitochondrial fraction) and 1 00,000g (microsomal fraction). Total protein concentration was assayed using a Bio-Rad protein assay with bovine serum albumin (BSA) as a standard (Bio-Rad, Hercules, Calif.). GPAT activity was determined by measuring the conversion of glycerol 3-phosphate (G3 P) to 1-acyl-sn-glycerol 3-phosphate in the presence of acyl-CoA. Formation of enzymatic products was detected by either the conventional 1-butanol extraction method followed by scintillation counting, or by thin layer chromatography (TLC) separation followed by exposure to a phosphorimager screen. GPAT activity assay by I -butanol extraction was performed as described (Yet et al., supra; Haldar and Vancura (1992) Methods Enzymol. 209:64-72). Briefly, cell lysates containing 100 μg protein were incubated for 20 min at room temperature in 75 mM Tris HCl, pH 7.5, 4 mM MgCl2, 1 mg/ml fatty acid-free BSA, 8 mM NaF, 50 μM lauroyl-CoA, 3 mM glycerol 3-phosphate, and 1 μCi of [^3H]glycerol 3-phosphate (30 Ci/mmol, American Radiolabeled Chemicals, Inc., St. Louis, Mo.) in a total volume of 250 μl. The reaction was stopped by addition of 0.5 ml of water-saturated 1-butanol and 0.5 ml of 1-butanol-saturated water followed by a vigorous vortex for 5 min. After a brief spin, the top phase (butanol) was transferred to a fresh tube and washed again with 0.5 ml of butanol-saturated water. Finally, an aliquot of the butanol phase was mixed with scintillation cocktail to count radioactivity using Accurate Radioisotope Counting (ARC).
To assess the GPAT activity more precisely, a TLC separation procedure was utilized. […] For TLC, enzymatic products were identified using standards detected by exposure to […]. All quantitative data are expressed as mean±S.E. Statistical analyses for differences between two groups were carried out using a Student's t-test.
To further investigate the role of GPAT3 in TAG and/or phospholipid synthesis in mammalian cells, GPAT3 was overexpressed in HEK293 cells and the incorporation of [^14C]oleic acid into TAG or phospholipids was measured. […]

human mtGPAT1 = target: T2, human mtGPAT1 (Homo sapiens, UniProt Q9HCL2); assay: GPAT activity assay (TLC separation of LPA) in lysates of HEK293 cells overexpressing mtGPAT1; type: biochemical; conditions: preincubated 15 min with NEM
T2 construct: expressed in transfected cells; host or cells: HEK293 cells, transient transfection (FUGENE 6); total lysate assayed
T2 sequence (Q9HCL2 1-828): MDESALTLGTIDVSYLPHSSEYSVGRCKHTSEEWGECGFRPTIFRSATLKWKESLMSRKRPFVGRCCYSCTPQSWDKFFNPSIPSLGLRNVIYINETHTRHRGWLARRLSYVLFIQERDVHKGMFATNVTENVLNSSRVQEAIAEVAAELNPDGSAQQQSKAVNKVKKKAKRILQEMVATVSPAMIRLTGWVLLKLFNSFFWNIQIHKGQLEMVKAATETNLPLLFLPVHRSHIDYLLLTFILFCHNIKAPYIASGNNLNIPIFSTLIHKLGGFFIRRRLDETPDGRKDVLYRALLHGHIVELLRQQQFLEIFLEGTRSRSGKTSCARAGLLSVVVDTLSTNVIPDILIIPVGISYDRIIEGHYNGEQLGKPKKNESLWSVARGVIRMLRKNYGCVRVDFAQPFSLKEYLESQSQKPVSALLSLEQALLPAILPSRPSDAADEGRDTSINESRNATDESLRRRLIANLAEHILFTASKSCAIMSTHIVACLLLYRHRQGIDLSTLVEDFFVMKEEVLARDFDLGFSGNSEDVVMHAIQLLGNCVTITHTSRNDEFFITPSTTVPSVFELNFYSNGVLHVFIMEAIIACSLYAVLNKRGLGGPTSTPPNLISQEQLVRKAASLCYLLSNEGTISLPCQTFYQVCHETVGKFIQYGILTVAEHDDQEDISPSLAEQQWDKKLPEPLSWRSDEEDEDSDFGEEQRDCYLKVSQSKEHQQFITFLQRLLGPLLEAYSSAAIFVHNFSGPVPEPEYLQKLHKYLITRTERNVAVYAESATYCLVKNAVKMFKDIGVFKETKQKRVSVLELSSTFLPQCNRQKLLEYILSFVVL

mGPAT3 mRNA = mGPAT3 mRNA (Q-PCR) in white adipose tissue of ob/ob mice treated with PPARγ agonist; type: in vivo, mouse; conditions: 15 mg/kg gavage once a day for 21 days
Procedure: To confirm and extend the transcriptional profiling data, TAQMAN® (Applied Biosystems, Foster City, Calif.) real-time quantitative PCR (Q-PCR) analysis was performed using probes specific for mouse and human GPAT3. Briefly, undifferentiated and differentiated 3T3-L1 adipocytes, tissues from normal 8-12 week old male C57B1/6J mice, and tissues from 10-week old male ob/ob and age-matched wild type control mice were obtained as previously described (Lake et al., supra). For PPARγ agonist treatment, 10-week old male ob/ob mice were gavaged once a day with 15 mg/kg rosiglitazone or vehicle control for 21 days. RNA and cDNA were prepared as previously described (Lake et al., supra). Gene profiling data were generated using the MOE430 chip according to the manufacturer's recommendations (Affymetrix, Santa Clara, Calif.). Q-PCR was performed using an ABI PRISM® 7900 sequence detector (Applied Biosystems, Foster City, Calif.) with 18s as an internal control as described (Lake et al., supra). Gene-specific primers and probes were obtained from Applied Biosystems (Cat. Nos. mm00554802_ml and Hs00262010_ml). Relative expression was determined by the […] (Applied Biosystems, Foster City, Calif.).
PPARγ agonists such as rosiglitazone induce expression of the lipogenic program in adipose tissue (Rosen and Spiegelman (2001) J. Biol. Chem. 276:37731-34). […]

substrate concentration at half-maximal activity (hGPAT3-dependent LPA formation) (hGPAT3): ~80 µM
SMILES: O=P(O)(O)OCC(O)CO (stereo not drawn) [G3P, glycerol 3-phosphate]

SMILES: CCN1C(=O)C=CC1=O [NEM, N-ethylmaleimide]
mtGPAT1-dependent LPA formation after NEM pretreatment (human mtGPAT1): not affected
increase in LPA formation conferred by hGPAT3 overexpression after NEM pretreatment (hGPAT3; HEK293 lysates): completely abolished
increase in LPA formation conferred by hGPAT3 overexpression after NEM pretreatment (hGPAT3; Sf-9 lysates): completely abolished

substrate concentration at half-maximal activity (hGPAT3-dependent LPA formation) (hGPAT3): ~25 µM
SMILES: CCCCCCCCCCCC(=O)SCCNC(=O)CCNC(=O)[C@H](O)C(C)(C)COP(=O)(O)OP(=O)(O)OC[C@H]1O[C@@H](n2cnc3c(N)ncnc32)[C@H](O)[C@@H]1OP(=O)(O)O [lauroyl-CoA]

SMILES: CN(CCOc1ccc(CC2SC(=O)NC2=O)cc1)c1ccccn1 (stereo not drawn) [rosiglitazone]
induced expression of mGPAT3 mRNA in white adipose tissue over control (mGPAT3 mRNA): 4.5 fold
